Assay results published in PMC4861903, “Synthesis of a highly water-soluble acacetin prodrug for treating experimental atrial fibrillation in beagle dogs” (Scientific Reports, 2016).

Test system: QTc interval
Experiment: ECG QTc interval in anesthetized beagle dogs
Format: in vivo
Conditions: for QTc interval after drug administration: at 35 min after administration, P = NS
Experimental: QTc (corrected QT) interval of ECG was analyzed in anesthetized beagle dogs before and at 35 min after drug administration. QTc interval was not altered (P = NS, before vs. after drug administration) in vehicle animals (n = 5, 273.6 ± 2.6 ms vs. 276.1 ± 4.2 ms) and animals treated with 3 mg/kg (n = 6, 279.5 ± 2.5 ms vs. 282.3 ± 1.7 ms), 6 mg/kg (n = 8, 276.9 ± 2.4 ms vs. 279.1 ± 2.3 ms), or 12 mg/kg (n = 7, 274.1 ± 3.5 ms vs. 278.7 ± 2.9 ms) acacetin prodrug. […]
China) were anesthetized with pentobarbital (40 mg/kg, i.v.), supplemented as necessary during the experiment. The animal was kept on an operation table maintained at 37°C, intubated and ventilated with room air. The left femoral vein was cannulated to maintain fluid balance, anesthesia, and test articles. Lead II electrocardiogram (ECG) was continuously monitored with using a digital recording system (RM6240, Chengdu Instruments, China)
An action potential (MAP) recording- and pacing-catheter (Boston Scientific Ltd) was introduced to the right atrium through right jugular vein, and an electrical pacing catheter was introduced to left ventricle via […] for ventricular pacing (when necessary).
Bilateral cervical vagal nerves were isolated and bipolar electrodes were placed to stimulate efferent vagal nerves with 15 Hz, 0.2 ms duration voltage step (80-100% threshold) to induce a 50% reduction of heart rate. Ventricular pacing was performed with 2-ms voltage pulses (2.5 Hz, 150% diastolic threshold) when vagal nerves were continuously stimulated. […]
Instruments, China). […]

COc1ccc(-c2cc(=O)c3c(O)cc(OP(=O)([O-])[O-])cc3o2)cc1.[Na+].[Na+] [acacetin prodrug, phosphate sodium salt of acacetin]
QTc interval after drug administration (3 mg/kg i.v., n = 6, before 279.5 ± 2.5 ms): 282.3 ± 1.7 ms | QTc interval after drug administration (6 mg/kg i.v., n = 8, before 276.9 ± 2.4 ms): 279.1 ± 2.3 ms | QTc interval after drug administration (12 mg/kg i.v., n = 7, before 274.1 ± 3.5 ms): 278.7 ± 2.9 ms | effect on QT interval (3, 6 and 12 mg/kg i.v., beagle dogs): no effect
